# From the supplement of paper PMC13380429
# Assays:
# Conditions in all cases: 72 h
# U2OS [1] = assay: cell viability relative to DMSO; higher = less toxic
# Caco-2 [2] = assay: as above
# HepG2 [3] = assay: as above
# Calu-3 [4] = assay: as above
# Vero E6 [5] = assay: as above
# U2OS [6] = assay: drug sensitivity score (DSS) for viability; higher = more toxic; extreme values may be limits of the assay
# Caco-2 [7] = assay: as above
# HepG2 [8] = assay: as above
# Calu-3 [9] = assay: as above
# Vero E6 [10] = assay: as above
# U2OS [11] = assay: relative viability EC50 (midpoint between 100% and the lowest measured viability); higher = less toxic
# Caco-2 [12] = assay: as above
# HepG2 [13] = assay: as above
# Calu-3 [14] = assay: as above
# Vero E6 [15] = assay: as above
Structure (SMILES),cell viability (U2OS [1]; 1 nM) [%],cell viability (U2OS [1]; 10 nM) [%],cell viability (U2OS [1]; 100 nM) [%],cell viability (U2OS [1]; 1000 nM) [%],cell viability (U2OS [1]; 10000 nM) [%],cell viability (Caco-2 [2]; 1 nM) [%],cell viability (Caco-2 [2]; 10 nM) [%],cell viability (Caco-2 [2]; 100 nM) [%],cell viability (Caco-2 [2]; 1000 nM) [%],cell viability (Caco-2 [2]; 10000 nM) [%],cell viability (HepG2 [3]; 1 nM) [%],cell viability (HepG2 [3]; 10 nM) [%],cell viability (HepG2 [3]; 100 nM) [%],cell viability (HepG2 [3]; 1000 nM) [%],cell viability (HepG2 [3]; 10000 nM) [%],cell viability (Calu-3 [4]; 1 nM) [%],cell viability (Calu-3 [4]; 10 nM) [%],cell viability (Calu-3 [4]; 100 nM) [%],cell viability (Calu-3 [4]; 1000 nM) [%],cell viability (Calu-3 [4]; 10000 nM) [%],cell viability (Vero E6 [5]; 1 nM) [%],cell viability (Vero E6 [5]; 10 nM) [%],cell viability (Vero E6 [5]; 100 nM) [%],cell viability (Vero E6 [5]; 1000 nM) [%],cell viability (Vero E6 [5]; 10000 nM) [%],drug sensitivity score (U2OS [6]),drug sensitivity score (Caco-2 [7]),drug sensitivity score (HepG2 [8]),drug sensitivity score (Calu-3 [9]),drug sensitivity score (Vero E6 [10]),relative viability EC50 (U2OS [11]) [µM],relative viability EC50 (Caco-2 [12]) [µM],relative viability EC50 (HepG2 [13]) [µM],relative viability EC50 (Calu-3 [14]) [µM],relative viability EC50 (Vero E6 [15]) [µM]
NC(=O)[C@@H](CCC(F)(F)F)N(Cc1ccc(-c2ncon2)cc1F)S(=O)(=O)c1ccc(Cl)cc1 [avagacestat],99.1,94.9,102,93.1,96.5,103,99.9,95.9,93.2,77.1,96.6,102,94.9,105,87.9,96.2,105,106,95.2,105,107,110,106,109,99.2,0,1.4,0,0,0,> 10,> 10,> 10,> 10,> 10
CC1CC(OC(=O)C(O)c2ccccc2)CC(C)(C)C1 (stereo not given) [cyclandelate],97.2,103,97.5,102,97.5,91.5,105,94.3,105,108,103,91.9,100,96.3,98.3,95.9,90.2,102,95.5,99,97.8,99.1,100,96.7,94.9,0,0,0,0,0,> 10,> 10,> 10,> 10,> 10
Cc1ccc2c(c1)c1c(n2CCc2ccc(C)nc2)CCN(C)C1 [latrepirdine],100,100,97.7,95.8,93.7,106,99.4,97.9,96,91,108,102,118,98.8,99.7,97.5,97.4,101,103,95.4,98,102,104,96.5,93.6,0,0,0,0,0,> 10,> 10,> 10,> 10,> 10
